In ChEMBL document CHEMBL1157484, “Protein subtype-targeting through ligand epimerization: talose-selectivity of galectin-4 and galectin-8” (Bioorg Med Chem Lett, 2008):

How the values were obtained:
[1] = biological target: T1, Galectin-2 (Homo sapiens, UniProt P05162); assay: Binding affinity to human galectin2 by fluorescence polarization assay
T1 sequence (P05162 whole entry): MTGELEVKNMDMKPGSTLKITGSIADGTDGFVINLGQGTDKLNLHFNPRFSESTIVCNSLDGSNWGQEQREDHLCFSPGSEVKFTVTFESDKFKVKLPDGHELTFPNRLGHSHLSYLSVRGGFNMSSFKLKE

[2] = Binding affinity to human galectin4N by fluorescence polarization assay
[3] = Binding affinity to human galectin4C by fluorescence polarization assay
[4] = Binding affinity to human galectin8N by fluorescence polarization assay
[5] = Binding affinity to human galectin9N by fluorescence polarization assay
[6] = biological target: Galectin-1 (Homo sapiens, UniProt P09382); assay: Binding affinity to human galectin1 by fluorescence polarization assay
Sequence of Galectin-1 (P09382 whole entry): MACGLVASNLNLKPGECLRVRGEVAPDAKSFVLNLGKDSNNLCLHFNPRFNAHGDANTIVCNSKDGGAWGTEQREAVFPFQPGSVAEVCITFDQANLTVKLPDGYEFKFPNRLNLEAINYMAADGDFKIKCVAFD

[7] = biological target: Galectin-3 (Homo sapiens, UniProt P17931); assay: Binding affinity to human galectin3 by fluorescence polarization assay
Sequence of Galectin-3 (P17931 whole entry): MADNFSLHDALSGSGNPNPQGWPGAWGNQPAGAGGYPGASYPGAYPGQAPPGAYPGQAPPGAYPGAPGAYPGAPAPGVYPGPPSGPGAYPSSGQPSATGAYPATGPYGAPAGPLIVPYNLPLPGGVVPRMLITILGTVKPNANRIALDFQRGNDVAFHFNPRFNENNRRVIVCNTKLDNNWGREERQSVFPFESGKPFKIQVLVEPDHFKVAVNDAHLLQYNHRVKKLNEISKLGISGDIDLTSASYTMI

Compound	Kd [1] [mM]	Kd [2] [mM]	Kd [3] [mM]	Kd [4] [mM]	Kd [5] [mM]	Kd [6] [mM]	Kd [7] [mM]
CO[C@@H]1O[C@H](CO)[C@H](O)[C@H](OC(=O)c2ccc(C)cc2)[C@@H]1O	–	> 4	–	0.4	> 4	2	1.4
CO[C@@H]1O[C@H](CO)[C@H](O)[C@H](OC(=O)c2ccc(C)cc2)[C@@H]1OC(=O)c1ccc(C)cc1	> 4	> 4	0.16	3.6	> 4	1.8	0.7
CO[C@@H]1O[C@H](CO)[C@H](O)[C@H](O)[C@@H]1O	> 10	> 10	10	1.5	4.6	–	–
CO[C@@H]1O[C@H](CO)[C@H](O)[C@H](OC(=O)c2ccc(C)cc2)[C@@H]1OS(=O)(=O)O	> 4	> 4	3	1.1	> 4	> 4	0.25

More lines, now with the values ahead:

Kd [1] [mM]	Kd [2] [mM]	Kd [3] [mM]	Kd [4] [mM]	Kd [5] [mM]	Kd [6] [mM]	Kd [7] [mM]	Compound
13	6.6	> 10	6.3	1.2	–	–	CO[C@@H]1O[C@H](CO)[C@H](O)[C@H](O)[C@H]1O
> 4	> 4	1.6	> 4	> 4	> 4	0.55	CO[C@@H]1O[C@H](CO)[C@H](O)[C@H](OC(=O)c2ccc(C)cc2)[C@@H]1OC(C)=O
1.5	> 4	> 4	–	> 4	> 4	2.3	CO[C@@H]1O[C@H](CO)[C@H](O)[C@H](OC(=O)c2ccc(C)cc2)[C@@H]1O[PH](=O)O
> 4	> 4	> 4	1	> 4	> 4	0.6	CO[C@@H]1O[C@H](CO)[C@H](O)[C@H](OC(=O)c2ccc(C)cc2)[C@@H]1OP(=O)(O)OC
